In US20080287398A1, “COLD MENTHOL RECEPTOR-1 ANTAGONISTS” (priority 2007, published 2008):
Where “and” joins values, the source holds several entries; their conditions need not be identical. Equal entries are not always repeated. Where two headings read alike, the source gives them in different places. Blank lines part the entries; values can stand above or below the molecule they belong to.

Molecular target: T1, canine TRPM8 (Canis lupus familiaris, UniProt Q1A7N1)
T1 construct: expressed in transfected cells
T1 sequence (Q1A7N1 1-1104): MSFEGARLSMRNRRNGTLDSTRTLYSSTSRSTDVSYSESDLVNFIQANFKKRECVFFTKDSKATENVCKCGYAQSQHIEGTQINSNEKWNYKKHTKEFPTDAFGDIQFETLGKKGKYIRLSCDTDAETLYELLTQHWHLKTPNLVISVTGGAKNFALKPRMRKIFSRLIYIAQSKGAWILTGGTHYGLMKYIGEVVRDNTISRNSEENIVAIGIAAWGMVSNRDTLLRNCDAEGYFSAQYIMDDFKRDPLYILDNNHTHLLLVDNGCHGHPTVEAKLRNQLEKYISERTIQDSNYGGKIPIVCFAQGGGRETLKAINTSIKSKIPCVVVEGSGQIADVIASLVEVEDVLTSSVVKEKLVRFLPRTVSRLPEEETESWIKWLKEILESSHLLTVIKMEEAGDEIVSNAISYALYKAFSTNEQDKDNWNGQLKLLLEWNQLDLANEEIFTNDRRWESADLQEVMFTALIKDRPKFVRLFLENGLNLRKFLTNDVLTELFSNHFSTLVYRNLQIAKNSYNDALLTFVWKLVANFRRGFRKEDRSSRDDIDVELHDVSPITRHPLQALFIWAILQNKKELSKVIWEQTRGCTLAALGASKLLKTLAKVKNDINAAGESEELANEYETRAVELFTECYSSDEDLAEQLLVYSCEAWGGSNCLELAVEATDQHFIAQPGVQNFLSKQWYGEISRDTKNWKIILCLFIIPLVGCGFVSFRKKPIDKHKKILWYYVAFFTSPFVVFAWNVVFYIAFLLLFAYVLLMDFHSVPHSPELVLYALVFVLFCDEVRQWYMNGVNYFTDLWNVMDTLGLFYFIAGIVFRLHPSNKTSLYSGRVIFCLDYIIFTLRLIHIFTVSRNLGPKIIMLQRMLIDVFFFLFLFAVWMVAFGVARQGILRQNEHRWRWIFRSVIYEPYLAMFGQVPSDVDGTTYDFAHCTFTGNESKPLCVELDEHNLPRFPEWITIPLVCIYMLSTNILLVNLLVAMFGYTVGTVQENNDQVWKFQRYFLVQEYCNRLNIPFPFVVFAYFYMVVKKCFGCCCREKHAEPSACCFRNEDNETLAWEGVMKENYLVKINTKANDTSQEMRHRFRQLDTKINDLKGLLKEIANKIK
Assay: In vitro canine TRPM8 functional assay (Ca2+-sensitive dye, FLIPR/FDSS, icilin activation)
Format: cell-based
Settings: HEK293 cells expressing canine TRPM8, icilin activation; for IC50: eight-point dose-response; for % I (0.5 μM): 0.5 μM compound; for % I (1 μM): 1 μM compound; for % I (5 μM): 5 μM compound
Description: The functional activity of compounds of Formula (I) was determined by measuring changes in intracellular calcium concentration using a Ca^2+-sensitive fluorescent dye. The changes in fluorescent signal were monitored by a fluorescence plate reader, either a FLIPR™ (Molecular Devices) or FDSS (Hamamatsu).
HEK293 cells stably expressing canine TRPM8 were routinely grown as monolayers in Dulbecco's minimum essential medium supplemented with 10% FBS, 1 mM L-glutamine, 100 units/mL penicillin, 100 ug/mL streptomycin and 400 μg/mL G418. Cells were maintained in 5% CO2 at 37° C. At 24 hrs prior to assay, cells were seeded in clear-base poly-D-lysine coated 384-well plates (BD Biosciences, NJ, USA) at a density of 5,000 cells per well in culture medium and grown overnight in 5% CO2 at 37° C. On assay day, growth media was removed and cells were loaded with Calcium 3 Dye (Molecular Devices) for 35 min at 37° C., under 5% CO2 and then for 25 min at room temperature and atmosphere. Subsequently, cells were tested for agonist-induced increases in intracellular Ca^2+ levels using FLIPR™ or FDSS. Cells were challenged with a compound of Formula (I) (at varying concentrations) and intracellular Ca^2+ was measured for 5 min prior to the addition of icilin to all wells to achieve a final concentration which produces approximately an 80% maximal response.
Basal FI was subtracted prior to normalizing data to percent of maximal response. Curves were generated using the average of quadruplicate wells for each data point, were analyzed using nonlinear regression of either sigmoidal dose response or sigmoidal dose response (variable slope). Finally, the EC50 and IC50 values were calculated with the best-fit dose curve determined by GraphPad Prism.

[1] = HEK293, read-out: % I (1 μM), 1 μM compound
[2] = HEK293, 1 μM compound, read-out: % I (1 μM)

Structure (SMILES): CCOP(=O)(OCC)C(Cc1ccc(Cl)c(Cl)c1)c1sc2ccccc2c1-c1ccccc1 (stereo not drawn) [Cpd 64, [2-(3,4-Dichloro-phenyl)-1-(3-phenyl-benzo[b]thiophen-2-yl)-ethyl]-phosphonic acid diethyl ester]
- inhibition at 1 µM [1]: 64%
- IC50 (IC50 (μM)): 0.3 µM

Structure (SMILES): CCOP(=O)(OCC)C(Cc1cc(F)cc(C(F)(F)F)c1)c1sc2ccccc2c1Br (stereo not drawn) [Cpd 140]
- % I (0.5 μM): 102%
- IC50 (read-out: IC50): 0.056 µM

Structure (SMILES): CCOP(=O)(OCC)C(Cc1ccccc1Cl)c1cc2ccccc2s1 (stereo not drawn) [Cpd 85]
- % I (1 μM): 90%
- % I (5 μM): 100%
- IC50 (read-out: IC50): 0.48 µM

Structure (SMILES): CCOP(=O)(OCC)C(Cc1ccc(F)c(F)c1)c1sc2ccccc2c1-c1cccc(C(=O)OC)c1 (racemic) [Cpd 219]
- % I (0.5 μM): 68%

Structure (SMILES): CCOP(=O)(Cc1cc2ccccc2s1)OCc1ccccc1F (stereo not drawn) [Cpd 109, Benzo[b]thiophen-2-ylmethyl-phosphonic acid ethyl ester 2-fluoro-benzyl ester]
- % I (5 μM): 98%
- inhibition at 1 µM [1]: 17%
- IC50 (IC50 (μM)): 1.47 µM

Structure (SMILES): CCOP(=O)(OCC)C(Cc1ccccc1OC(F)(F)F)c1sc2ccccc2c1C (stereo not drawn) [Cpd 61]
- % I (1 μM): 100%
- IC50 (read-out: IC50): 0.28 µM

Structure (SMILES): CC(C)OP(=O)(OC(C)C)C(Cc1ccc(OC(F)(F)F)c(Cl)c1)c1sc2ccccc2c1Cl (stereo not drawn) [Cpd 184]
- % I (0.5 μM): 104%
- IC50 (read-out: IC50): 0.057 µM

Structure (SMILES): CCOP(=O)(OCC)C(Cc1cccc(C(F)(F)F)c1)c1cc2ccccc2s1 (stereo not drawn) [Cpd 39]
- % I (1 μM): 100%
- IC50 (read-out: IC50): 0.141 µM

Structure (SMILES): CCOP(=O)(OCC)C(Cc1ccccc1F)c1sc2ccccc2c1CN(C)C (stereo not drawn) [Cpd 114, [1-(3-Dimethylaminomethyl-benzo[b]thiophen-2-yl)-2-(2-fluoro-phenyl)-ethyl]-phosphonic acid diethyl ester]
- inhibition at 1 µM [1]: 15%

Structure (SMILES): CCOP(=O)(CC(C)C)C(Cc1ccc(F)c(F)c1)c1sc2ccccc2c1C (stereo not drawn) [Cpd 36, [2-(3,4-Difluoro-phenyl)-1-(3-methyl-benzo[b]thiophene-2-yl)-ethyl]-isobutyl-phosphonic acid ethyl ester]
- % I (1 μM): 100%
- IC50 (read-out: IC50): 0.126 µM

Structure (SMILES): CC(C)OP(=O)(OC(C)C)C(Cc1ccc(F)c(F)c1)c1sc2ccccc2c1C1CCCC1 (stereo not drawn) [Cpd 38]
- % I (1 μM): 99%
- IC50 (read-out: IC50): 0.14 µM

Structure (SMILES): CC(C)OP(=O)(OC(C)C)C(Cc1ccc(SC(F)(F)F)cc1)c1sc2ccccc2c1Cl (racemic) [Cpd 304]
- % I (0.5 μM): 102%
- IC50 (read-out: IC50): 0.028 µM

Structure (SMILES): CC(C)OP(=O)(OC(C)C)C(Cc1cccc(Cl)c1)c1cc2ccccc2s1 (stereo not drawn) [Cpd 134]
- % I (1 μM): 101%
- IC50 (read-out: IC50): 0.34 µM

Structure (SMILES): CCOP(=O)(OCC)C(Cc1ccc(F)c(F)c1)c1sc2cccc(C(F)(F)F)c2c1C (stereo not drawn) [Cpd 84]
- inhibition at 1 µM [1]: 97%
- IC50 (IC50 (μM)): 0.46 µM

Structure (SMILES): CCOP(=O)(OCC)C(Cc1cc(F)cc(F)c1Cl)c1sc2ccccc2c1C (stereo not drawn) [Cpd 28]
- % I (1 μM): 100%
- IC50 (read-out: IC50): 0.11 µM

Structure (SMILES): CCOP(=O)(OCC)C(Cc1cccc(C#N)c1)c1sc2ccccc2c1Br (stereo not drawn) [Cpd 309]
- % I (0.5 μM): 103%
- IC50 (read-out: IC50): 0.088 µM

Structure (SMILES): CCOP(=O)(OCC)C(Cc1ccccc1C)c1sc2ccccc2c1C (stereo not drawn) [Cpd 26]
- % I (1 μM): 100%
- IC50 (read-out: IC50): 0.108 µM

Structure (SMILES): CCC(C)P(=O)(C(C)CC)C(Cc1ccc(F)c(F)c1)c1oc2ccccc2c1Br (stereo not drawn) [Cpd 123]
- % I (1 μM): 103%
- IC50 (read-out: IC50): 0.28 µM

Structure (SMILES): CCOP(=O)(OCC)C(Cc1ccc(O)c(C(F)(F)F)c1)c1sc2ccccc2c1Br (racemic) [Cpd 233]
- % I (0.5 μM): 70%

Structure (SMILES): CC(C)OP(=O)(OC(C)C)C(Cc1ccc(Cl)cc1)c1sc2ccccc2c1Br (racemic) [Cpd 288]
- % I (0.5 μM): 103%
- IC50 (read-out: IC50): 0.065 µM

Structure (SMILES): CCOP(=O)(OCC)C(Cc1ccc(F)c(F)c1)c1sc2ccccc2c1-c1ccccc1O (racemic) [Cpd 215]
- % I (0.5 μM): 101%
- IC50 (read-out: IC50): 0.085 µM

Structure (SMILES): CCOP(=O)(OCC)C(Cc1ccc(OC(F)(F)F)c(Cl)c1)c1sc2ccccc2c1Cl (stereo not drawn) [Cpd 271]
- % I (0.5 μM): 103%
- IC50 (read-out: IC50): 0.104 µM

Structure (SMILES): CCOP(=O)(OCC)C(Cc1ccc(F)c(F)c1)c1sc2ccccc2c1-c1cccnc1F (stereo not drawn) [Cpd 128, {2-(3,4-Difluoro-phenyl)-1-[3-(2-fluoro-pyridin-3-yl)-benzo[b]thiophen-2-yl]-ethyl}-phosphonic acid diethyl ester]
- inhibition at 1 µM [1]: 100%
- IC50 (IC50 (μM)): 0.02 µM

Structure (SMILES): COc1cc(CC(c2sc3ccccc3c2Br)P(=O)(OC(C)C)OC(C)C)c(F)cc1Cl (racemic) [Cpd 165]
- % I (0.5 μM): 102%
- IC50 (read-out: IC50): 0.086 µM

Structure (SMILES): CCOP(=O)(OCC)C(Cc1cc(OC)c(Cl)cc1F)c1sc2ccccc2c1Br (racemic) [Cpd 164]
- % I (0.5 μM): 94%
- IC50 (read-out: IC50): 0.082 µM

Structure (SMILES): CCOP(=O)(OCC)C(Cc1cccc(C(F)(F)F)c1F)c1sc2ccccc2c1C (stereo not drawn) [Cpd 37]
- % I (1 μM): 100%
- IC50 (read-out: IC50): 0.127 µM

Structure (SMILES): CC(C)OP(=O)(OC(C)C)C(Cc1cc(Cl)ccc1F)c1sc2ccccc2c1Br (racemic) [Cpd 308]
- % I (0.5 μM): 103%
- IC50 (read-out: IC50): 0.017 µM

Structure (SMILES): CCOP(=O)(OCC)C(Cc1ccc(S(=O)(=O)C(F)(F)F)cc1)c1sc2ccccc2c1Cl (racemic) [Cpd 300]
- % I (0.5 μM): 103%
- IC50 (read-out: IC50): 0.089 µM

Structure (SMILES): CCOP(=O)(OCC)C(Cc1ccc(F)c(F)c1)c1sc2ncccc2c1Br (stereo not drawn) [Cpd 132, 1-[(3-Bromo-thieno[2,3-b]pyridin-2-yl)-2-(3,4-difluoro-phenyl)-ethyl]-phosphonic acid diethyl ester]
- inhibition at 1 µM [1]: 102%
- IC50 (IC50 (μM)): 0.11 µM

- inhibition at 0.5 µM (HEK293, 0.5 μM compound, read-out: % I (0.5 μM)): 102%
- IC50 (read-out: IC50): 0.119 µM
Structure (SMILES): COC(=O)COP(=O)(OCC(=O)OC)C(Cc1ccc(F)c(F)c1)c1sc2ccccc2c1Br (stereo not drawn) [Cpd 212, {[1-(3-Bromo-benzo[b]thiophen-2-yl)-2-(3,4-difluoro-phenyl)-ethyl]-methoxycarbonylmethoxy-phosphinoyloxy}-acetic acid methyl ester]

Structure (SMILES): CCOP(=O)(OCC)C(Cc1ccccc1Cl)c1sc2ccccc2c1Cl (stereo not drawn) [Cpd 269]
- % I (0.5 μM): 102%
- IC50 (read-out: IC50): 0.162 µM

- inhibition at 1 µM [2]: 100%
- IC50 (read-out: IC50): 0.07 µM
Structure (SMILES): CC(C)OP(=O)(OC(C)C)C(Cc1ccc(F)c(F)c1)c1sc2ccccc2c1C1CC1 (stereo not drawn) [Cpd 20, [1-(3-Cyclopropyl-benzo[b]thiophene-2-yl)-2-(3,4-difluoro-phenyl)-ethyl]-phosphonic acid diisopropyl ester]

Structure (SMILES): CCOP(=O)(OCC)C(Cc1cccc(C(F)(F)F)c1Cl)c1sc2ccccc2c1Br (racemic) [Cpd 151]
- % I (0.5 μM): 103%
- IC50 (read-out: IC50): 0.12 µM

Structure (SMILES): CCOP(=O)(Cc1cc2ccccc2s1)OCc1ccccc1Br (stereo not drawn) [Cpd 110]
- % I (1 μM): 11%
- % I (5 μM): 96%
- IC50 (read-out: IC50): 2.32 µM

Structure (SMILES): CCOP(=O)(OCC)C(Cc1c(Cl)ccc(C)c1F)c1sc2ccccc2c1C (stereo not drawn) [Cpd 60]
- % I (1 μM): 100%
- IC50 (read-out: IC50): 0.28 µM

Structure (SMILES): CC(C)OP(=O)(OC(C)C)C(Cc1ccc(F)cc1)c1sc2cc(Br)ccc2c1Br (stereo not drawn) [Cpd 200]
- % I (1 μM): 81%

Structure (SMILES): CCOP(=O)(OCC)C(Cc1ccc(F)c(F)c1)c1sc2ccccc2c1-c1ccsc1 (racemic) [Cpd 208]
- % I (0.5 μM): 104%
- IC50 (read-out: IC50): 0.104 µM

Structure (SMILES): CCOP(=O)(OCC)C(Cc1cc(C(F)(F)F)ccc1Cl)c1sc2ccccc2c1Br (racemic) [Cpd 148]
- % I (0.5 μM): 103%
- IC50 (read-out: IC50): 0.172 µM

Structure (SMILES): CCC(C)P(=O)(C(C)CC)C(Cc1ccc(F)c(F)c1)c1sc2ccccc2c1Br (stereo not drawn) [Cpd 203]
- % I (1 μM): 96%
- IC50 (read-out: IC50): 0.457 µM

- inhibition at 1 µM [2]: 91%
- IC50 (read-out: IC50): 0.58 µM
Structure (SMILES): Cc1c(C(Cc2ccc(F)c(F)c2)P(=O)(OC(C)C)OC(C)C)sc2ccc(Cl)cc12 (stereo not drawn) [Cpd 92, [1-(5-Chloro-3-methyl-benzo[b]thiophen-2-yl)-2-(3,4-difluoro-phenyl)-ethyl]-phosphonic acid diisopropyl ester]

Structure (SMILES): CC(C)OP(=O)(OC(C)C)C(Cc1ccc(O)c(F)c1)c1sc2ccccc2c1Br (racemic) [Cpd 227]
- % I (0.5 μM): 52%

Structure (SMILES): CCOP(=O)(OCC)C(Cc1ccc(Cl)c(C(F)(F)F)c1)c1sc2ccccc2c1Br (stereo not drawn) [Cpd 139]
- % I (0.5 μM): 102%
- IC50 (read-out: IC50): 0.06 µM

Structure (SMILES): CCOP(=O)(OCC)C(Cc1c(F)c(F)c(O)c(F)c1F)c1sc2ccccc2c1Br (racemic) [Cpd 228]
- % I (0.5 μM): 94%
- IC50 (read-out: IC50): 0.129 µM

Structure (SMILES): CC(=O)n1c(C(Cc2ccc(F)c(C(F)(F)F)c2)P(=O)(OC(C)C)OC(C)C)c(Br)c2ccccc21 (stereo not drawn) [Cpd 331]
- % I (0.5 μM): 101%
- IC50 (read-out: IC50): 0.152 µM

Structure (SMILES): CCOP(=O)(OCC)C(Cc1ccc(F)c(F)c1)C1=C(C)c2ccccc2S1(=O)=O (stereo not drawn) [Cpd 88, [2-(3,4-Difluoro-phenyl)-1-(3-methyl-1,1-dioxo-1H-1λ^6-benzo-[b]thiophen-2-yl)-ethyl]-phosphonic acid diethyl ester]
- inhibition at 1 µM [1]: 80%
- IC50 (IC50 (μM)): 0.5 µM and 0.54 µM

Structure (SMILES): CCOP(=O)(OCC)C(Cc1ccc(SC)cc1)c1sc2ccccc2c1Br (racemic) [Cpd 247]
- % I (0.5 μM): 103%
- IC50 (read-out: IC50): 0.121 µM
